According to US10696693B2, “Fused imidazole derivatives as TGF-beta inhibitors” (Rigel Pharmaceuticals, Inc., priority 2014, dated 2020):
Read-outs that look alike come from different tables or passages of the source.

Assays:
[1] = tested on: GDF8; test: AlphaScreen SureFire p-SMAD3 (Ser423/425) assay, GDF8-stimulated cells; assay type: cell-based; conditions: Mus musculus
From the text: (§1) The p-SMAD-3 (Ser423/425) SureFire® assay has been designed to measure the phosphorylation of endogenous cellular p-SMAD-3 (Ser423/425) in cell lysates and is a system for the screening of both modulators of receptor activation (e.g. agonists and antagonists) as well as agents acting intracellularly, such as small molecule inhibitors of upstream events. The assay will measure p-SMAD-3 (Ser423/425) activation by either cloned or endogenous receptors, and can be applied to primary cells.
(§2) 96-well Assay Protocol for 293FT and RMS13 adherent cells can be carried out manually or in high throughput with liquid handling robots.
(§3) The cells (80 μL of cells for 96 well plates) were plated in collagen coated tissue culture plates in RPMI or FreeStyle medium (Invitrogen) and incubated overnight. For manual analysis, 6 plates for GDF8, 6 plates for TGFβ, and optionally 6 plates for Alk5ca(ALK5 constitutively active) were used.
(§4) The compound dilution plates were prepared as follows: 12 μL of DMSO was transferred into first column of 96-well plate, and 16 μL of DMSO was transferred into columns 2-12 of the 96-well plate. 12 μL of compound solution was transferred into first column of the DMSO-containing 96-well plate. Three-fold dilution was performed up to column 10 of the DMSO-containing 96-well plate.
(§5) The plate containing cells were treated with compounds for about 10 minutes, and then ligand was added. GDF8 or TGFb was added to plates to stimulate. 293FL cells were stimulatedfor 90 minutes at 37° C.; and RMS13 cells were stimulated for 60 minutes at 37° C. The medium was then removed from the cells, and 1× Lysis Buffer (about 25 μL) was added and the plate was gently agitated on plate shaker for 5-10 minutes.
(§6) The lysate (5 μL) was then placed into 384-well shallow plates avoiding the generation of bubbles. To this, the Reaction Buffer+Activation Buffer+AlphaScreen® Acceptor beadsmixture (5 μL) was added. The plate was sealed with adhesive cover and shielded from light (e.g., with metal foil), and agitated gently on plate shaker for 2 hours at room temperature.
(§7) Dilution buffer+AlphaScreen® Donor beads (2 μL) was then added, and the plate was intubated on the plate shaker for an additional 1½ hours. After completion, the plate was read on Synergy-4 or Enspire plate reader, using AlphaScreen® pSMAD3® settings.
(§8) Representative results for inhibition of GDF8 (data=GDF pSMAD (MPC11) (μM)) and TGF-β (data=TGF-β pSMAD (MPC-11) (μM)) signaling are shown in Table 1(A=<0.05 μM, B=0.05−<0.1 μM, C=0.1−<1.0 μM, D=>1.0 μM): […]

[2] = tested on: TGF-β; test: AlphaScreen SureFire p-SMAD3 (Ser423/425) assay, TGF-β-stimulated cells; assay type: cell-based; conditions: Mus musculus
From the text: as §1, §2, §3, §4, §5, §6, §7, §8

[3] = MPC-11, p-SMAD3 (Ser423/425) AlphaScreen in cell lysate, MPC11, GDF8 stimulation, read-out: GDF8: inhibition of GDF8 signaling, GDF pSMAD (MPC11)
[4] = p-SMAD3 (Ser423/425) AlphaScreen in cell lysate, MPC-11, TGF-β stimulation, read-out: TGF-β: inhibition of TGF-β signaling, TGF-β pSMAD (MPC-11)
[5] = MPC-11, read-out: GDF8: inhibition of GDF8 signaling, GDF pSMAD (MPC11), p-SMAD3 (Ser423/425) AlphaScreen in cell lysate, GDF8 stimulation
[6] = MPC-11, read-out: TGF-β: inhibition of TGF-β signaling, TGF-β pSMAD (MPC-11), p-SMAD3 (Ser423/425) AlphaScreen in cell lysate, TGF-β stimulation

For Fc1ccc(-c2nc3occn3c2-c2ccc3[nH]ncc3c2)cc1F [Compound 133, 6-(3,4-difluorophenyl)-5-(1H-indazol-5-yl)imidazo[2,1-b]oxazole], the IC50 [1, 3] was 0.05 to 0.1 µM and the IC50 [2, 4] was 0.05 to 0.1 µM.

Work on Cc1cc(-c2nc3n(c2-c2ccc4ncnn4c2)CCC3)c(F)cc1F [Compound 38, 6-(2-(2,4-difluoro-5-methylphenyl)-6,7-dihydro-5H-pyrrolo[1,2-a]imidazol-3-yl)-[1,2,4]triazolo[1,5-a]pyridine] yielded an IC50 [1, 3] of under 0.05 µM and an IC50 [2, 4] of under 0.05 µM.

Cc1ccc(-c2nc3occn3c2Br)c(F)c1 [Compound 153, 5-bromo-6-(2-fluoro-4-methylphenyl)imidazo[2,1-b]oxazole] was tested, and the IC50 [1, 3] was over 1 µM and the IC50 [2, 4] was over 1 µM.

Cc1cc(-c2nc3n(c2-c2ccc4ncccc4c2)CCC3)cc(C)c1Cl [Compound 246, 6-(2-(4-chloro-3,5-dimethylphenyl)-6,7-dihydro-5H-pyrrolo[1,2-a]imidazol-3-yl)quinoline] was tested, and the IC50 [1, 3] was over 1 µM and the IC50 [2, 4] was over 1 µM.

Work on Clc1ccc(Cl)c(-c2nc3n(c2-c2ccc4ncnn4c2)CCC3)c1 [Compound 92, 6-(2-(2,5-dichlorophenyl)-6,7-dihydro-5H-pyrrolo[1,2-a]imidazol-3-yl)-[1,2,4]triazolo[1,5-a]pyridine] yielded an IC50 [1, 5] of 0.05 to 0.1 µM and an IC50 [2, 6] of 0.1 to 1 µM.

Cc1cc(-c2nc3n(c2-c2ccc4ncnn4c2)CCC3)cc(C)c1Cl [Compound 24, 6-(2-(4-chloro-3,5-dimethylphenyl)-6,7-dihydro-5H-pyrrolo[1,2-a]imidazol-3-yl)-[1,2,4]triazolo[1,5-a]pyridine] was tested, and the IC50 [1, 3] was over 1 µM and the IC50 [2, 4] was over 1 µM.

Fc1ccc(-c2nc3n(c2-c2ccc4[nH]ncc4c2)CCC3)cc1F [Compound 205, 5-(2-(3,4-difluorophenyl)-6,7-dihydro-5H-pyrrolo[1,2-a]imidazol-3-yl)-1H-indazole] showed an IC50 [1, 3] of 0.1 to 1 µM and an IC50 [2, 4] of 0.1 to 1 µM.

For CC(C)c1nnc2ccc(-c3c(-c4cc(F)c(F)cc4F)nc4n3CCC4)cn12 [Compound 21, 3-isopropyl-6-(2-(2,4,5-trifluorophenyl)-6,7-dihydro-5H-pyrrolo[1,2-a]imidazol-3-yl)-[1,2,4]triazolo[4,3-a]pyridine], the IC50 [1, 3] was over 1 µM and the IC50 [2, 4] was over 1 µM.

Fc1ccc(-c2nc3n(c2-c2ccc4cn[nH]c4c2)CCC3)cc1 [Compound 176, 6-(2-(4-fluorophenyl)-6,7-dihydro-5H-pyrrolo[1,2-a]imidazol-3-yl)-1H-indazole] was tested, and the IC50 [1, 5] was 0.1 to 1 µM and the IC50 [2, 6] was over 1 µM.

Work on O=S(=O)(Nc1cccc(-c2nc3n(c2-c2ccc4nccn4c2)CCC3)c1)c1ccccc1F [Compound 70, 2-fluoro-N-(3-(3-(imidazo[1,2-a]pyridin-6-yl)-6,7-dihydro-5H-pyrrolo[1,2-a]imidazol-2-yl)phenyl)benzenesulfonamide] yielded an IC50 [1, 3] of over 1 µM and an IC50 [2, 4] of over 1 µM.

Cc1ccc(Cl)cc1-c1nc2n(c1-c1ccc3ncsc3c1)CCC2 [Compound 350, 6-(2-(5-chloro-2-methylphenyl)-6,7-dihydro-5H-pyrrolo[1,2-a]imidazol-3-yl)benzo[d]thiazole] was tested, and the IC50 [1, 5] was 0.05 to 0.1 µM and the IC50 [2, 6] was 0.1 to 1 µM.

Compound Cc1cc(-c2nc3n(c2-c2ccc4[nH]ncc4c2)CCC3)ccc1F [Compound 172, 5-(2-(4-fluoro-3-methylphenyl)-6,7-dihydro-5H-pyrrolo[1,2-a]imidazol-3-yl)-1H-indazole] has an IC50 [1, 5] of under 0.05 µM and an IC50 [2, 6] of 0.05 to 0.1 µM.

In the case of Cc1cc(-c2nc3n(c2-c2ccc4ncnn4c2)CCC3)c(Cl)cc1F [Compound 69, 6-(2-(2-chloro-4-fluoro-5-methylphenyl)-6,7-dihydro-5H-pyrrolo[1,2-a]imidazol-3-yl)-[1,2,4]triazolo[1,5-a]pyridine], the IC50 [1, 3] is reported as 0.05 to 0.1 µM and the IC50 [2, 4] is reported as 0.1 to 1 µM.

In the case of Cc1cc(-c2nc3n(c2-c2ccc4nccnc4c2)CCC3)cc(C)c1Cl [Compound 245, 6-(2-(4-chloro-3,5-dimethylphenyl)-6,7-dihydro-5H-pyrrolo[1,2-a]imidazol-3-yl)quinoxaline], the IC50 [1, 3] is reported as over 1 µM and the IC50 [2, 4] is reported as over 1 µM.

With Cc1cc(F)ccc1-c1nc2n(c1-c1ccc3nccn3c1)CCC2 [Compound 55, 6-(2-(4-fluoro-2-methylphenyl)-6,7-dihydro-5H-pyrrolo[1,2-a]imidazol-3-yl)imidazo[1,2-a]pyridine] the IC50 [1, 3] was 0.1 to 1 µM and the IC50 [2, 4] was over 1 µM.

Cc1cc(F)ccc1-c1nc2n(c1-c1ccc3nccnc3c1)CCC2 [Compound 294, 6-(2-(4-fluoro-2-methylphenyl)-6,7-dihydro-5H-pyrrolo[1,2-a]imidazol-3-yl)quinoxaline] gave an IC50 [1, 5] of over 1 µM and an IC50 [2, 6] of over 1 µM.

With Fc1cccc(-c2nc3n(c2-c2ccc4ncsc4c2)CCC3)c1 [Compound 195, 6-(2-(3-fluorophenyl)-6,7-dihydro-5H-pyrrolo[1,2-a]imidazol-3-yl)benzo[d]thiazole] the IC50 [1, 5] was 0.1 to 1 µM and the IC50 [2, 6] was 0.1 to 1 µM.

In the case of Fc1ccc(Cl)cc1-c1nc2n(c1-c1ccc3ncc(-n4ccnc4)nc3c1)CCC2 [Compound 360, 7-(2-(5-chloro-2-fluorophenyl)-6,7-dihydro-5H-pyrrolo[1,2-a]imidazol-3-yl)-2-(1H-imidazol-1-yl)quinoxaline], the IC50 [1, 5] is reported as under 0.05 µM and the IC50 [2, 6] is reported as under 0.05 µM.

Work on Cc1ccccc1-c1nc2n(c1-c1ccc3ncsc3c1)CCC2 [Compound 305, 6-(2-(o-tolyl)-6,7-dihydro-5H-pyrrolo[1,2-a]imidazol-3-yl)benzo[d]thiazole] yielded an IC50 [1, 3] of 0.1 to 1 µM and an IC50 [2, 4] of over 1 µM.

For COCCOc1cnc2ccc(-c3c(-c4cc(Cl)ccc4F)nc4n3CCC4)cc2n1 [Compound 354, 7-(2-(5-chloro-2-fluorophenyl)-6,7-dihydro-5H-pyrrolo[1,2-a]imidazol-3-yl)-2-(2-methoxyethoxy)quinoxaline], the IC50 [1, 5] was 0.05 to 0.1 µM and the IC50 [2, 6] was under 0.05 µM.

Work on Cc1cc(-c2nc3n(c2-c2ccc4cn[nH]c4c2)CCC3)ccc1F [Compound 177, 6-(2-(4-fluoro-3-methylphenyl)-6,7-dihydro-5H-pyrrolo[1,2-a]imidazol-3-yl)-1H-indazole] yielded an IC50 [1, 3] of 0.05 to 0.1 µM and an IC50 [2, 4] of 0.1 to 1 µM.

Compound Fc1cc(F)c(-c2nc3n(c2-c2ccc4ncnn4c2)CCC3)cc1F [Compound 14, 6-(2-(2,4,5-trifluorophenyl)-6,7-dihydro-5H-pyrrolo[1,2-a]imidazol-3-yl)-[1,2,4]triazolo[1,5-a]pyridine] has an IC50 [1, 3] of under 0.05 µM and an IC50 [2, 4] of 0.1 to 1 µM.

Cc1c(-c2nc3n(c2-c2ccc4nccnc4c2)CCC3)ccc(F)c1F [Compound 262, 6-(2-(3,4-difluoro-2-methylphenyl)-6,7-dihydro-5H-pyrrolo[1,2-a]imidazol-3-yl)quinoxaline] showed an IC50 [1, 3] of 0.1 to 1 µM and an IC50 [2, 4] of over 1 µM.

CN1CCC2Cn3c(nc(-c4ccc(F)cc4)c3-c3ccc4ncnn4c3)C2C1 (stereo not shown) [Compound 89, 3-([1,2,4]triazolo[1,5-a]pyridin-6-yl)-2-(4-fluorophenyl)-8-methyl-5a,6,7,8,9,9a-hexahydro-5H-imidazo[1′,2′:1,2]pyrrolo[3,4-c]pyridine] showed an IC50 [1, 3] of over 1 µM and an IC50 [2, 4] of over 1 µM.

Work on Fc1cc(F)c(-c2nc3n(c2-c2ccc4cn[nH]c4c2)CCC3)cc1F [Compound 217, 6-(2-(2,4,5-trifluorophenyl)-6,7-dihydro-5H-pyrrolo[1,2-a]imidazol-3-yl)-1H-indazole] yielded an IC50 [1, 3] of 0.1 to 1 µM and an IC50 [2, 4] of 0.1 to 1 µM.

Fc1cc(F)c(-c2nc3n(c2-c2ccc4ncnn4c2)CCC3)cc1Cl [Compound 94, 6-(2-(5-chloro-2,4-difluoro)-6,7-dihydro-5H-pyrrolo[1,2-a]imidazol-3-yl)-[1,2,4]triazolo[1,5-a]pyridine] showed an IC50 [1, 3] of under 0.05 µM and an IC50 [2, 4] of under 0.05 µM.
